Laboratory results: US12109218B2, “Compositions of grapiprant and methods for using the same” (ARATANA THERAPEUTICS, INC., priority 2014, dated 2024)

Assays:
[1] = Crossover PK of tablet vs methylcellulose suspension in beagle dogs (Example 15); assay type: in vivo, beagle dog; details: for Cmax / AUC(0-t) / Tmax: both sexes, dog, serum, po; for Cmax / AUC(0-t): beagle, both sexes combined; for AUC(0-t): read-out: average AUClast
Experimental: The objective of this study was to determine and compare the pharmacokinetic parameters of grapiprant in beagle dogs after single oral administration of a flavored tablet formulation and a methylcellulose suspension formulation at nominal doses of 6 mg/kg and 50 mg/kg. For this study, sixteen beagle dogs, […], were divided into two groups based on the nominal doses of grapiprant, either 6 mg/kg in Groups 3AB or 50 mg/kg in Groups 4A/B. Each group was given the appropriate oral dose in a tablet or in a methylcellulose formulation, using the crossover design as shown below at Table 19, on study Days 0 and 15. Blood samples were collected and serum was prepared, frozen, and analyzed for concentration of grapiprant.
The vehicle was 0.5% methylcellulose (400 centipoise) in water. About half a volume of distilled water was heated to about 40-50° C. Methylcellulose was weighed to give a final concentration of 0.5% (w/v), and dissolved in the heated distilled water with stirring. The flask with the methylcellulose solution was cooled immediately. The remaining distilled water was added into the flask to adjust volume. The final solution was stirred for least 30 minutes.
To prepare 1.2-mg/mL and 10-mg/mL suspensions grapiprant in the vehicle, an appropriate amount of grapiprant was added to a calibrated beaker containing 0.5% aqueous methylcellulose, and mixed using a vortex. The suspension was homogenized using a Polytron™ mixer with attached antifoam bit. A stir bar was added to the beaker, and the suspension was stirred for about 5 minutes. The stir bar was removed temporarily to adjust the volume, and the suspension was stirred for another 5 minutes before it was transferred to a labeled amber dosing container or glass beaker wrapped with foil.
The dosing suspension was prepared fresh on each day of dosing. A vortex depth of between 75% and 100% of the depth of the container containing the 500-mg suspension was achieved on both dosing days. […] Dose formulation samples were transported to the animal room before collection and were collected (while the formulations were being stirred) just before dosing the first animal of each group, and just before dosing the last animal of each group. These steps guard against the 500-mg suspension settling during transport from the formulation laboratory to the animal room.

[2] = test system: cat serum proteins; assay: Binding to cat serum proteins by equilibrium dialysis (Example 11); details: equilibrium dialysis (RED device)
Experimental: Grapiprant concentrations of 200 and 1000 ng/mL in cat serum were subjected to equilibrium dialysis using a Rapid Equilibrium Dialysis (RED) device.

[3] = Pharmacokinetics in cats FPK-13-004 (Example 13); assay type: in vivo, cat; details: for AUC(0-t) / Cmax / Tmax / half-life / Cmax/Dose: cats
Experimental: This controlled, non-GLP, laboratory study used three treatment groups: Group 1 was dosed with grapiprant at 2.5 mg/animal; Group 2 was dosed with grapiprant at 5 mg/animal; and Group 3 was dosed with grapiprant at 10 mg/animal. Each dose was administered once on Day 0. Blood samples were collected and processed to serum for pharmacokinetic (PK) analysis. Four hours post-dose, all cats were offered food. Following PK sample collections on Day 1, all animals were released to an open feline colony.
Pharmacokinetic parameters were similar between males and females within each dose group, and therefore mean values were determined by combining data from all animals.

[4] = test system: meniscal release model of osteoarthritis; assay: Meniscal release model of osteoarthritis in dogs (Example 8); assay type: in vivo
Experimental: Twenty intact adult female hounds underwent surgical meniscal release of the right stifle and were maintained for at least 8 weeks to allow osteoarthritis to develop. […] Animals were randomized into three groups: negative control (n=6), positive control (n=7) treated with 5 mg/kg firocoxib daily, and grapiprant (n=7) dosed once daily at 30 mg/kg. Dosing was based on baseline bodyweight.
Baseline physical exams, bodyweights, hematology, serum chemistry and urinalysis were obtained on study Day −1 and repeated on Day 13. Orthopedic assessments were conducted on Day −1, Day 2, Day 6, and Day 13, including a kinetics assessment using the GAITRite system to determine left hindlimb: right hindlimb ratios for peak pressure, stride length, step length, and stance time, a 5-point scale lameness evaluation, VAS assessments of right hindlimb function, right stifle pain and effusion, and comfortable range of motion measurements of both stifles using a goniometer.

[5] = test system: complete Freund's adjuvant-induced chronic inflammatory pain response; details: cited from earlier work
[6] = 9-month oral toxicity study in dogs with 4-week recovery (Example 7)
Experimental: Four animals per sex were used in each dose group and two additional animals per sex in the 50 mg/kg dose group for recovery purposes. Clinical signs and food consumption were assessed daily. Bodyweight was recorded weekly. Ophthalmologic examination was performed on Weeks 20 and 38 of the dosing phase and Week 4 of the recovery phase. Electrocardiograms were recorded on Weeks 13, 26, and 38 of the dosing phase and Week 4 of the recovery phase. Hematology, coagulation, and serum chemistry parameters were monitored on Weeks 13, 26, and 39 of the dosing phase and Week 4 or 5 of the recovery phase. Urinalyses were performed on Week 37 of the dosing phase and Week 3 or 4 of the recovery phase. […] At the end of the dosing or recovery period, dogs were euthanized and necropsied. After gross examination, selected organs were weighed, and a comprehensive set of tissues was collected and processed for microscopic examination.

[7] = test system: thermal hyperalgesia induced by intraplantar injection of PGE2; details: oral administration; cited from earlier work
[8] = 60 mg, beagle dogs, Day 0, 60-mg suspension
[9] = 60 mg, beagle dogs, Day 0, 60-mg tablet
[10] = 60 mg, beagle dogs, Day 15, 60-mg suspension
[11] = 60 mg, beagle dogs, Day 15, 60-mg tablet
[12] = 500 mg, beagle dogs, Day 0, 500-mg suspension
[13] = 500 mg, beagle dogs, Day 0, 500-mg tablet
[14] = 500 mg, beagle dogs, Day 15, 500-mg suspension
[15] = 500 mg, beagle dogs, Day 15, 500-mg tablet
[16] = single dose 5 mg (1 mg/kg), mean of all animals
[17] = for a 4-fold increase in dose from 0.5 to 2 mg/kg

CCc1nc2c(C)nc(C)cc2n1-c1ccc(CCNC(=O)NS(=O)(=O)c2ccc(C)cc2)cc1 [grapiprant, N-{2-[4-(2-ethyl-4,6-dimethyl-1H-imidazo[4,5-c]pyridin-1-yl)phenyl]ethyl}-N′-[(4-methylphenyl)sulfonyl]urea]
fecal abnormalities ([1]; beagle dogs, single oral 60 mg or 500 mg): Slight increases in the incidence of fecal abnormalities | relative bioavailability ratio (tablet/suspension) ([1]; both dose levels, both trials): greater than 100 | Cmax [1, 8]: 4050 ng/mL | AUC(0-t) [1, 8]: 14.5 µg·h/mL | Cmax [1, 9]: 5330 ng/mL | AUC(0-t) [1, 9]: 19.6 µg·h/mL | Cmax [1, 10]: 3810 ng/mL | AUC(0-t) [1, 10]: 12.5 µg·h/mL | Cmax [1, 11]: 6110 ng/mL | AUC(0-t) [1, 11]: 17.4 µg·h/mL | Cmax [1, 12]: 76800 ng/mL | AUC(0-t) [1, 12]: 293 µg·h/mL | Cmax [1, 13]: 96100 ng/mL | AUC(0-t) [1, 13]: 455 µg·h/mL | Cmax [1, 14]: 74200 ng/mL | AUC(0-t) [1, 14]: 209 µg·h/mL | Cmax [1, 15]: 101000 ng/mL | AUC(0-t) [1, 15]: 430 µg·h/mL | Tmax ([1]; beagle dogs, Day 0, 60-mg methylcellulose suspension): 1 h | Tmax ([1]; beagle dogs, Day 15, 500-mg suspension): 1 h | percent bound ([2]; 200 ng/mL): 95% | percent bound ([2]; 1000 ng/mL): 92% | AUC(0-t) ([3]; both sexes, serum, 2.5 mg/animal, single dose 2.5 mg (0.5 mg/kg), mean of all animals): 4190 ng·h/mL | Cmax ([3]; both sexes, serum, 2.5 mg/animal, single dose 2.5 mg (0.5 mg/kg), mean of all animals, read-out: Cmax): 1060 ng/mL | Tmax ([3]; both sexes, serum, 5 mg/animal, single dose 5 mg (1 mg/kg), mean of all animals, read-out: Tmax): 1.13 h | AUC(0-t) ([3]; both sexes, serum, 10 mg/animal, single dose 10 mg (2 mg/kg), mean of all animals): 21200 ng·h/mL | Cmax ([3]; both sexes, serum, 10 mg/animal, single dose 10 mg (2 mg/kg), mean of all animals, read-out: Cmax): 4430 ng/mL | Tmax ([3]; both sexes, serum, 0.5 to 2 mg/kg, read-out: Mean Tmax values among groups): 1.13 to 1.5 h | half-life ([3]; both sexes, serum, single dose 2.5 mg (0.5 mg/kg), mean of all animals): 94.8 min | half-life ([3]; both sexes, serum, single dose 5 mg (1 mg/kg), mean of all animals): 67.8 min | half-life ([3]; both sexes, serum, single dose 10 mg (2 mg/kg), mean of all animals): 206 min | Cmax/Dose ([3]; single dose 2.5 mg (0.5 mg/kg), mean of all animals): 2120 kg·ng/mL/mg | Cmax [3, 16]: 2690 ng/mL | Cmax/Dose [3, 16]: 2500 kg·ng/mL/mg | Cmax/Dose ([3]; single dose 10 mg (2 mg/kg), mean of all animals): 2150 kg·ng/mL/mg | increase in AUClast [3, 17]: 5.06 fold | increase in Cmax [3, 17]: 4.18 fold | safety ([4]; 30 mg/kg): considered safe for at least a 14-day treatment period | lameness scores ([4]; 30 mg/kg once daily): lower lameness scores in the grapiprant treated group on Day 2 compared to the negative and positive control groups | pain scores ([4]; 30 mg/kg once daily): statistically significant lower pain scores on Days 2 and 6 compared to baseline | serum total protein, albumin, and globulin ([4]; 30 mg/kg once daily): decreases in mean total protein, albumin, and globulin | amelioration of lameness and pain ([4]; 30 mg/kg over 14 days): effective at day 2 in ameliorating lameness and pain | effect on chronic inflammatory pain response [5]: reverses complete Freund's adjuvant-induced chronic inflammatory pain response | decrease in mean albumin/globulin (A/G) ratio ([6]; 6 mg/kg, Week 39): −16% | histopathological finding ([6]; 50 mg/kg): mild regeneration of the mucosal epithelium of the ileum in one male | decrease in mean serum albumin vs. control value ([6]; 50 mg/kg, Weeks 26 and 39): up to −14% | accumulation ([6]; 1, 6, and 50 mg/kg/day dosing regimen): no accumulation of grapiprant was observed | level with no observed adverse effects ([6]; Beagle dogs, oral once daily, nine months): 6 mg/kg | individual decrease in albumin vs. pre-study ([6]; dose-related trend, 1-50 mg/kg): up to −41% | individual decrease in calcium ([6]; dose-related trend, 1-50 mg/kg): up to −18% | individual decrease in total protein ([6]; dose-related trend, 1-50 mg/kg): up to −30% | ED50, reduction of thermal hyperalgesia [7]: 12.8 mg/kg
